Reference: paper doi:10.1101/2025.07.15.665002v1 (biorxiv, 2025)
Where a chain is given by its changes, count along the chain named. Read-outs that look alike come from different tables or passages of the source.

Experiments:
[1] = biological target: T1, hMDH2 (Homo sapiens, UniProt P40926, H131W); format: binding
T1 sequence (P40926 25-338 H131W): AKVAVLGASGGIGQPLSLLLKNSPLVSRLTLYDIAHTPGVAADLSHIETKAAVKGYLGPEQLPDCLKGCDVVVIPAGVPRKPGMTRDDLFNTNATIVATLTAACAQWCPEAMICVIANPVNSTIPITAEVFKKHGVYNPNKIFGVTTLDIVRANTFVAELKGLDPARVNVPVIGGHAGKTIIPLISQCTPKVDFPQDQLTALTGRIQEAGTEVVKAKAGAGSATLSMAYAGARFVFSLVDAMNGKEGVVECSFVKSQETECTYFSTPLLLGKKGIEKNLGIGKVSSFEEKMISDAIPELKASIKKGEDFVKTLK

[2] = biological target: T2, hMDH2 (Homo sapiens, UniProt P40926); assay: NADH oxidation at […] nm; format: biochemical; details: read-out: % of control activity remaining at 10.0 mM
T2 sequence (P40926 25-338): T1 sequence (P40926 25-338 H131W) with W107H

[3] = biological target: T2, hMDH2; assay: NADH oxidation at […] nm; format: biochemical; details: read-out: % inhibition at 10.0 mM
[4] = biological target: T1, hMDH2; format: binding; remark: listed apart in the source

SMILES	Kd [1] [mM]	remaining activity at 10000 µM [2] [%]	inhibition at 10000 µM [3] [%]	Kd [4] [mM]
O=C(O)CC(O)(CC(=O)O)C(=O)O [citrate]	–	31	–	–
O=C(O)CCC(=O)C(=O)O [α-ketoglutarate]	–	–	51.7	10.4 ± 1.45

Next, values leading:

Kd [1] [mM]	remaining activity at 10000 µM [2] [%]	inhibition at 10000 µM [3] [%]	Kd [4] [mM]	SMILES
3.77 ± 0.27	18.7	–	–	Nc1ncnc2c1ncn2[C@@H]1O[C@H](COP(=O)(O)OP(=O)(O)O)[C@@H](O)[C@H]1O [ADP]
9.63 ± 0.68	29.1	–	–	Nc1ncnc2c1ncn2[C@@H]1O[C@H](COP(=O)(O)OP(=O)(O)OP(=O)(O)O)[C@@H](O)[C@H]1O [ATP]
1.02 ± 0.039	13.2	–	–	NC(=O)c1ccc[n+]([C@@H]2O[C@H](COP(=O)(O)OP(=O)(O)OC[C@H]3O[C@@H](n4cnc5c(N)ncnc54)[C@H](O)[C@@H]3O)[C@@H](O)[C@H]2O)c1 [NAD^+]
